Data on one compound can be found in patent US7692011B2, “8-hydroxy and 8-mercapto quinazolinones” (Prana Biotechnology Limited, priority 2002, dated 2010).

The data set can be described thus: Assay 13 Blood brain barrier penetration (rat brain perfusion). It counts as in vivo. The note with it: 50 μM infusion, 1.5 minutes. How it is done: Assay 13. Blood Brain Barrier Penetration
The test compounds were dissolved in DMSO and phosphate buffered saline (PBS) was added to obtain solutions at a concentration of 50 μM in PBS containing 1.25-2.5% DMSO. A trace amount of ^14C-sucrose was added to each stock infusion solution (approx 0.01 μCi/mL) to act as Blood-Brain Barrier (BBB)-impermeable marker in order to assess the integrity of the BBB during each perfusion and to estimate the volume of the residual vascular space (RVS) in samples of brain tissue (ie: the volume of fluid remaining inside the lumen of blood vessels at the end of each perfusion). […]
After 1.5 minutes, the infusion pump automatically stopped, the cannula was withdrawn from the carotid artery and a sample of the infusion solution (1-1.5 mL) was then collected from the tip of the infusion cannula. […] The brain tissue samples from each animal were frozen at −30° C., homogenized and weighed aliquots analysed by LC-MS to give total brain concentration. […]
Small aliquots from each brain tissue sample and the corresponding infusion solution were analysed by liquid scintillation counting to determine the level of ^14C-sucrose. The residual vascular space (RVS) in each brain tissue sample was calculated by dividing the measured concentration of sucrose in brain tissue (dpm/mg) by its concentration in the corresponding infusion solution (dpm/μL). […]

Molecules are shown by their SMILES.

Consider `O=c1c2c(Cl)cc(Cl)c(O)c2ncn1C1CC1` [PBT-1061, 5,7-Dichloro-3-cyclopropyl-8-hydroxy-3H-quinazolin-4-one], for which the “Assay 13 Rat brain perfusion (brain uptake ratio)” value is recorded as more than 50%.
